Source: US20230303497A1, “BENZYLAMINE OR BENZYL ALCOHOL DERIVATIVE AND USES THEREOF” (CHENGDU HYPERWAY PHARMACEUTICALS CO., LTD, priority 2020, published 2023)
Read-outs that look alike come from different tables or passages of the source.

Experiments:
human NaV1.8 ion channel = human NaV1.8 ion channel (Homo sapiens (Human), UniProt Q9Y5Y9); assay: Compound inhibition activity on human NaV1.8 ion channel in HEK293 cells (whole-cell patch clamp); format: cell-based; conditions: 100 nm concentration, HEK293 cells, resting protocol
hERG ion channels = hERG ion channels (Homo sapiens (Human), UniProt Q12809); assay: Inhibition activity test on hERG ion channels in HEK293 cells (cardiac safety, patch clamp)
Protocol: This experiment is used as a cardiac safety test of compound.
The reagents are purchased from Sigma (St. Louis, MO) except NaOH and KOH for acid-base titration. Final concentrations of tested solutions are prepared on the testing day and dissolved in extracellular fluid. […] All the test solutions and the control solutions contain 0.3% DMSO. Intracellular fluid (mM) contains: K Aspartate, 130; MgCl2, 5; EGTA 5; HEPES, 10; Tris-ATP 4; pH 7.2 (KOH titration).
Cells: all experiments is performed at room temperature. Each cell itself is taken as the corresponding control.
Compounds are all perfused using a perfusion system that utilizes the gravity. At least two cells are tested per concentration. After current stabilization (or 5 minutes), the change in current magnitude before and after the use of the compound is compared to calculate the blocking effect of the compound.
The method of operation is the same as that of the test compound.
Electrophysiology: Transfer the Cells to the perfusion tank and perfuse with extracellular fluid. The intracellular fluid (mM) contains: K Aspartate, 130; MgCl2, 5; EGTA 5; HEPES, 10; Tris-ATP 4; pH 7.2 (KOH titration). The intracellular fluid is stored in small quantities in portions in a −80° C. refrigerator, and melt on the day of the experiment. Electrodes are drawn with PC-10 (Narishige, Japan). Recording is performed with whole-cell diaphragm clamp. Noise is filtered with one-fifth of the sampling frequency.
This process is repeated every 20 seconds. The hERG tail current is the pure hERG current. The maximum tail current triggered by the second square wave is detected, and when the current is stabilized, the test compound is perfused. The strength of the block is calculated when the response is stabilized.

NaV1.1 = NaV1.1 (Homo sapiens (Human), UniProt P35498); assay: Selectivity test for Nav ion channel subtypes: NaV1.1 (HEK293, patch clamp); format: cell-based; conditions: 1 uM; HEK293 cells
Protocol: (§1) Test Case 3: Compound Selectivity Test for Nav Ion Channel Subtypes
(§2) The aim of this test is to investigate effect of compounds on human Na ion channel cells expressed in steady-state (NaV1.1, NaV1.3, NaV1.4, NaV1.5, NaV1.6, NaV1.7). After Na ion currents is stabilized, the effect can be obtained by comparing the magnitude of Na channel currents before and after the application of the compounds.
(§3) The test compound is stored at a concentration of 9 mM in dimethyl sulfoxide (DMSO), and on the day of testing, dissolve in extracellular solution, then prepare to a screening concentration of 1 uM.
(§4) All experiments are performed at room temperature. Each cell itself is taken as the corresponding control.
(§5) At least one cell is tested per concentration.
(§6) HEK293 cells steadily expressing NaV1.1-, NaV1.3-, NaV1.4-, NaV1.5-, NaV1.6-ion channels; CHO cells expressing steadily NaV1.7 ion channel.
(§7) The intracellular fluid (mM) is: Aspartic acid, 140; MgCl2, 2; EGTA 11; HEPES, 10; pH 7.2 (CsOH titration). […] Electrodes are drawn with PC-10 (Narishige, Japan). Recording is performed with whole-cell diaphragm clamp.
(§8) Cells are clamped at −80 mV and then depolarized to −10 mV with a sustained 10 ms square wave to obtain Na ion channel currents (see the FIGURE). This process is repeated every 5 seconds. […] The strength of the block is calculated after the response is stabilized.

NaV1.3 = NaV1.3 (Homo sapiens (Human), UniProt Q9NY46); assay: Selectivity test for Nav ion channel subtypes: NaV1.3 (HEK293, patch clamp); format: cell-based; conditions: 1 uM; HEK293 cells
Protocol: as §1, §2, §3, §4, §5, §6, §7, §8

NaV1.4 = NaV1.4 (Homo sapiens (Human), UniProt P35499); assay: Selectivity test for Nav ion channel subtypes: NaV1.4 (HEK293, patch clamp); format: cell-based; conditions: 1 uM; HEK293 cells
Protocol: as §1, §2, §3, §4, §5, §6, §7, §8

NaV1.5 = NaV1.5 (Homo sapiens (Human), UniProt Q14524); assay: Selectivity test for Nav ion channel subtypes: NaV1.5 (HEK293, patch clamp); format: cell-based; conditions: 1 uM; HEK293 cells
Protocol: as §1, §2, §3, §4, §5, §6, §7, §8

NaV1.6 = NaV1.6 (Homo sapiens (Human), UniProt Q9UQD0); assay: Selectivity test for Nav ion channel subtypes: NaV1.6 (HEK293, patch clamp); format: cell-based; conditions: 1 uM; HEK293 cells
Protocol: as §1, §2, §3, §4, §5, §6, §7, §8

NaV1.7 = NaV1.7 (Homo sapiens (Human), UniProt Q15858); assay: Selectivity test for Nav ion channel subtypes: NaV1.7 (CHO cells, patch clamp); format: cell-based; conditions: 1 uM
Protocol: as §1, §2, §3, §4, §5, §6, §7, §8

[1] = In vivo pharmacokinetic testing of compounds in rats; conditions: male SD rats, single oral dose 100 mg/kg, plasma, VX-150 dosed as prodrug, active form analysed
Protocol: Test Case 4: In Vivo Pharmacokinetic Testing of Compounds in Rats
All SD rats in the test are male and are purchased from Shanghai Sippe-Bk Lab Animal Co., Ltd. Each compound is administered orally (100 mg/kg, 3 rats per group) at single dose to SD rats for pharmacokinetic study. The solutions are prepared on the same day of administration, e.g., the tested compound is suspended in 5% DMSO+95% saline, get vortexed for 2 min, and sonicated for 5 min to prepare a drug delivery system. The animals are fasted for 10-14 hours before oral administration, and resumed food 4 hours after administration. After oral administration by gavage in SD rats, pharmacokinetic samples are collected from jugular vein at the following time points: 0, 15 min, 30 min, 1 h, 2 h, 4 h, 6 h, 8 h and 24 h. Three whole blood samples are collected at each time point in a volume of about 0.2 mL and anticoagulated using sodium heparin. Blood samples are placed on ice immediately after collection and plasma is separated by centrifugation within 1 h (centrifugation conditions: 6800 rpm, 6 min, 2-8° C.). The collected plasma is stored in a −80° C. refrigerator prior to analysis.
In pharmacokinetic tests in rat, the control compound VX-150 is a prodrug (WO2015089361, compound 9), after administration, analysis is performed to test its active form (WO2014120808, compound 10). The aforementioned in vitro pharmacological tests are performed using the active ingredient (WO2014120808, compound 10).

[2] = read-out: Inhibition ratio of compounds against Nav1.8 (Activity of inhibition)
[3] = read-out: Inhibition ratio of Nav1.8 (Activity of inhibition)

NaV1.3, sequence (Q9NY46 whole entry): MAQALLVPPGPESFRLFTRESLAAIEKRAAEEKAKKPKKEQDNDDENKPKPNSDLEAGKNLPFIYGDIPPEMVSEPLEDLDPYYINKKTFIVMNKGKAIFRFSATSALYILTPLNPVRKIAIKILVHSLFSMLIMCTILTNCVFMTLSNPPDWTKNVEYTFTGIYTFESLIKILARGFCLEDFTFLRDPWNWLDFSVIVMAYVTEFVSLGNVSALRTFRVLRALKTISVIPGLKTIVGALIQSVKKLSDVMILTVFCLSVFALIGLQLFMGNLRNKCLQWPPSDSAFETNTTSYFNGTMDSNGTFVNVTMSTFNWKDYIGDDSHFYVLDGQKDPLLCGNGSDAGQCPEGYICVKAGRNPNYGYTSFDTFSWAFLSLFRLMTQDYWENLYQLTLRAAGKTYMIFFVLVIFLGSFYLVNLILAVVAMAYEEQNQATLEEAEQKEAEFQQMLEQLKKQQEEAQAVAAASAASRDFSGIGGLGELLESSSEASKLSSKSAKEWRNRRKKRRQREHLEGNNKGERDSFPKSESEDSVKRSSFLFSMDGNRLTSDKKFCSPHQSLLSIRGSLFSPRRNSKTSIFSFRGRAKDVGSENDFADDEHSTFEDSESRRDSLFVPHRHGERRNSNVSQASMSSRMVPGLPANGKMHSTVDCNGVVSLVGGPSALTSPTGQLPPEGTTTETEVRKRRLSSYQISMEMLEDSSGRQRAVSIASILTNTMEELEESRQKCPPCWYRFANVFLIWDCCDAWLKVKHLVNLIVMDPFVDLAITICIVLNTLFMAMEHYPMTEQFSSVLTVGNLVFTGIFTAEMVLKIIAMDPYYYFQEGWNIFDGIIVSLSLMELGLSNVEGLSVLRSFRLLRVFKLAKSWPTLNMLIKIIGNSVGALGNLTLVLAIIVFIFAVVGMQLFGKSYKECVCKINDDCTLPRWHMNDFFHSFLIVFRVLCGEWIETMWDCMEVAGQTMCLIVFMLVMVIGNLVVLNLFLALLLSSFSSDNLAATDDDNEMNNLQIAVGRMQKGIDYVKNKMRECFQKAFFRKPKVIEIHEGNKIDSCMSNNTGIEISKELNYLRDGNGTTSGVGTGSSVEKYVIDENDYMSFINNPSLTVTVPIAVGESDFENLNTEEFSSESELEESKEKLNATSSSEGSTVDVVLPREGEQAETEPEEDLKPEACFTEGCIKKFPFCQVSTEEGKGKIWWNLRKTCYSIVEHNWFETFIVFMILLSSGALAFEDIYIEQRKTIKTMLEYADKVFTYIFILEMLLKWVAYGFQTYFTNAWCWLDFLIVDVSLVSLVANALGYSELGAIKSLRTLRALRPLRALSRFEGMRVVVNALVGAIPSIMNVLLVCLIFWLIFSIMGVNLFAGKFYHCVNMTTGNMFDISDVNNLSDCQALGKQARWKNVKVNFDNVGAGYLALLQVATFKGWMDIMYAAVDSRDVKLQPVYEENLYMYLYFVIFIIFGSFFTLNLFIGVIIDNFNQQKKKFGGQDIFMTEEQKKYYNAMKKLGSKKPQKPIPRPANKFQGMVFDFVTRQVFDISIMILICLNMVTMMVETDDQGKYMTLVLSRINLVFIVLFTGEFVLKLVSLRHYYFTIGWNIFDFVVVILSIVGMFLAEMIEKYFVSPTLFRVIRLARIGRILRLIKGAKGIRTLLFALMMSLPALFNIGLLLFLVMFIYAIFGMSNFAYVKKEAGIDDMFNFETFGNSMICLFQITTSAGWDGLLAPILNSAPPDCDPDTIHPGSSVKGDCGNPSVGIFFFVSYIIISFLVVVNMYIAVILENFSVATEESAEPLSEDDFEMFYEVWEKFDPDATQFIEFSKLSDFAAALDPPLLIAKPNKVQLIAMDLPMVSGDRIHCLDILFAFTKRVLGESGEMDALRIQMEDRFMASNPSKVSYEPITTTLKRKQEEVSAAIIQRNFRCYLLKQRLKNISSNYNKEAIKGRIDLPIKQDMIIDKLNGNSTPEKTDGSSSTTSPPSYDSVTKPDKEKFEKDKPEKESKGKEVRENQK
NaV1.7, sequence (Q15858 whole entry): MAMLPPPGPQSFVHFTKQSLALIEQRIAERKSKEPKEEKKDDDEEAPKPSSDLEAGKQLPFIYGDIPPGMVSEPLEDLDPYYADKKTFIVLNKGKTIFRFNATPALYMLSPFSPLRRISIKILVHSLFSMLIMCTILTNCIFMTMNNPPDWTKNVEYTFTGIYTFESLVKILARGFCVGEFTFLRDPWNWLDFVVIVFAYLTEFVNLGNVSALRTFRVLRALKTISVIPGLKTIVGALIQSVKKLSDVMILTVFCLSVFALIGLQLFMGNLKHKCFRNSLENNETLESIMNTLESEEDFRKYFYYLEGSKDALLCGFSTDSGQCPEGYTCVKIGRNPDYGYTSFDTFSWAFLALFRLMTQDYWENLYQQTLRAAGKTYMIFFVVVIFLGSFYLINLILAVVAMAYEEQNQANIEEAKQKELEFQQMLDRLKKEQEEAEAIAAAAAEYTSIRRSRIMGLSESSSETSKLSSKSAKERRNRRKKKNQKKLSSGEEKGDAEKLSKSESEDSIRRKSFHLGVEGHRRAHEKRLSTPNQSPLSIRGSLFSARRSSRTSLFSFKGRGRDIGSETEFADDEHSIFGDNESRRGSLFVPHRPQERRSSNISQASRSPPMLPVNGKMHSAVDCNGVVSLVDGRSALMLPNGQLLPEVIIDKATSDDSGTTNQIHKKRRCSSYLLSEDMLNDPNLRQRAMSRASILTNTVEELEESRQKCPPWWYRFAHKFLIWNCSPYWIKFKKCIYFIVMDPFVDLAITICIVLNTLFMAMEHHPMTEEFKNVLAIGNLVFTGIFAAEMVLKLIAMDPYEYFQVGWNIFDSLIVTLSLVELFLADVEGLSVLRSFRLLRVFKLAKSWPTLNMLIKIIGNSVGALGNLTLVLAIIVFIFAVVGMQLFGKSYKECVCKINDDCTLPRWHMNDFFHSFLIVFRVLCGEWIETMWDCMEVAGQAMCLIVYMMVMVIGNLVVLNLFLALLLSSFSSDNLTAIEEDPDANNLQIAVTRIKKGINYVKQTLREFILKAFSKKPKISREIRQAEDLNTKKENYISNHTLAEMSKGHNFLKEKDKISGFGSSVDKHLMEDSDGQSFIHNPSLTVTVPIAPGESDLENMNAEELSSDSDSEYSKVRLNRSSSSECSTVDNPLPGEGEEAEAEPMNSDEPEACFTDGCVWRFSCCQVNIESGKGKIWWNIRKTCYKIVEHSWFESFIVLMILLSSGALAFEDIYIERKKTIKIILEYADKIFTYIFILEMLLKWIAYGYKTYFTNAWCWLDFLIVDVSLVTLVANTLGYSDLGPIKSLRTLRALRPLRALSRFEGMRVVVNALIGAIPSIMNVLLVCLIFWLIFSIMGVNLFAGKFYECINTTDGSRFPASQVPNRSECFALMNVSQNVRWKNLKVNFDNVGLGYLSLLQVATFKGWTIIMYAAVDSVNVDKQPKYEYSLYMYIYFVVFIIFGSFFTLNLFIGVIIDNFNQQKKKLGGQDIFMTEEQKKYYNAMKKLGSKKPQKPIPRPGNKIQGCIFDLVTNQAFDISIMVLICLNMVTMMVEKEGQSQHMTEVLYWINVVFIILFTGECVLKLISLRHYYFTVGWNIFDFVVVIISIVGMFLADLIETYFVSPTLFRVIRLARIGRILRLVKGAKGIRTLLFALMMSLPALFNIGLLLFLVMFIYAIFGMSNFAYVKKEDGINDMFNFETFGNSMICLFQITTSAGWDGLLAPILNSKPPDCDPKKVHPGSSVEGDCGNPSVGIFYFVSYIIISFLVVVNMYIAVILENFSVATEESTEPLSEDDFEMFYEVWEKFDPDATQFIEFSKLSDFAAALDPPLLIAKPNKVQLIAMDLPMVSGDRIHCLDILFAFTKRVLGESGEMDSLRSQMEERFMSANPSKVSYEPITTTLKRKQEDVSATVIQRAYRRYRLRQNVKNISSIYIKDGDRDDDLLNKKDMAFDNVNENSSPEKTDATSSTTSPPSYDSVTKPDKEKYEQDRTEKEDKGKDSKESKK
hERG ion channels, sequence (Q12809 whole entry): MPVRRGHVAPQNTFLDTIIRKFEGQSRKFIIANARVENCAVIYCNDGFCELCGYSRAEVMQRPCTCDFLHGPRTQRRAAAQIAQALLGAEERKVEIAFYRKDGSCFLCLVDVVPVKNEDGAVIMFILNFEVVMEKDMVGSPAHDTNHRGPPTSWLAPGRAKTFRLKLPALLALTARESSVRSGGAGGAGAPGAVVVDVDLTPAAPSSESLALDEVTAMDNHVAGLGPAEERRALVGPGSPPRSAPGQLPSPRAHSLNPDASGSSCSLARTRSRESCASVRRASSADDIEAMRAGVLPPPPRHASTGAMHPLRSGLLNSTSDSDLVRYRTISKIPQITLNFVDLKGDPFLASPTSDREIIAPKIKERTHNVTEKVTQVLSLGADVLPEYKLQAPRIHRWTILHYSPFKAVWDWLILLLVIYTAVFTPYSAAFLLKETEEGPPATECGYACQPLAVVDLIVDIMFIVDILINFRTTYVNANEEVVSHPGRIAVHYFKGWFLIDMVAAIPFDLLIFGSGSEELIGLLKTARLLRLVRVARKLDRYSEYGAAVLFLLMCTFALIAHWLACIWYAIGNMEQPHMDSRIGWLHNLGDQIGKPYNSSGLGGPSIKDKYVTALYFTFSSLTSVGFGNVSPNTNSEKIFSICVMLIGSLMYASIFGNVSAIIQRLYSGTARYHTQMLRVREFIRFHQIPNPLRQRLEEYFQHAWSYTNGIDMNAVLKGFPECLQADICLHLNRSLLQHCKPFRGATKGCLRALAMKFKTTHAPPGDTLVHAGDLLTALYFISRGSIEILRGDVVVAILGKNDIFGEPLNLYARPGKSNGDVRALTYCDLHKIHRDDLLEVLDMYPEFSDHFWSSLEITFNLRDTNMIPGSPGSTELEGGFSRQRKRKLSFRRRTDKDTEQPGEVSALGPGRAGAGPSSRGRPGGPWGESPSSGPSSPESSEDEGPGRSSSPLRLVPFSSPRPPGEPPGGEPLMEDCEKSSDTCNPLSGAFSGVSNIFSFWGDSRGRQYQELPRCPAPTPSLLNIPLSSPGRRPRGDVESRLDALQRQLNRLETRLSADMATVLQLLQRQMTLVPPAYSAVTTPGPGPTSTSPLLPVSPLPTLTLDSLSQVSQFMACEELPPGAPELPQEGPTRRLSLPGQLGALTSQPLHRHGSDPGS

Cc1cc(F)ccc1Oc1cc(C(F)(F)F)c(Cl)cc1C(=O)Nc1ccc(F)c(OC[C@H](O)CNC(=O)CO)c1 [Example 117]
inhibition at 0.1 µM (human NaV1.8 ion channel; [2]): > 80% | IC50 (hERG ion channels): 6 µM | Inhibition ratio on Nav1.1 (NaV1.1): <1% | Inhibition ratio on Nav1.3 (NaV1.3): 1.2% | Inhibition ratio on Nav1.4 (NaV1.4): <1% | Inhibition ratio on Nav1.5 (NaV1.5): 5.0% | Inhibition ratio on Nav1.6 (NaV1.6): <1% | Inhibition ratio on Nav1.7 (NaV1.7): <1% | half-life ([1]; rat): 3 h | AUC ([1]; rat, read-out: AUC): 114 µg·h/mL | Cmax ([1]; rat, read-out: Cmax): 9.57 µg/mL

Cc1cc(F)ccc1Oc1cc(C(F)(F)F)ccc1C(=O)Nc1ccn(COP(=O)(O)O)c(=O)c1 [VX-150, reference compound]
Inhibition ratio of Nav1.8 (Activity of inhibition) (human NaV1.8 ion channel): B (80 > B >= 50) | IC50 (hERG ion channels): 7 µM | Inhibition ratio on Nav1.1 (NaV1.1): <1% | Inhibition ratio on Nav1.3 (NaV1.3): 2.2% | Inhibition ratio on Nav1.4 (NaV1.4): 3.6% | Inhibition ratio on Nav1.5 (NaV1.5): 15.4% | Inhibition ratio on Nav1.6 (NaV1.6): 1.7% | Inhibition ratio on Nav1.7 (NaV1.7): 8.7% | AUC [1]: 13.859 µg·h/mL | Cmax [1]: 1.176 µg/mL | T1/2 [1]: 2.2 h

Cc1cc(F)ccc1Oc1cc(C2CC2)c(C(F)(F)F)cc1C(=O)Nc1ccnc(OC[C@H](O)CO)c1 [Example 104]
inhibition at 0.1 µM (human NaV1.8 ion channel; [2]): > 80% | IC50 (hERG ion channels; human, pH 7.4): 3.8 µM | Inhibition ratio on Nav1.1 (NaV1.1): 1.5% | Inhibition ratio on Nav1.3 (NaV1.3): 4.3% | Inhibition ratio on Nav1.4 (NaV1.4): <1% | Inhibition ratio on Nav1.5 (NaV1.5): <1% | Inhibition ratio on Nav1.6 (NaV1.6): 2.8% | Inhibition ratio on Nav1.7 (NaV1.7): 1.3% | half-life ([1]; rat): 5.1 h | AUC ([1]; rat, read-out: AUC): 58 µg·h/mL | Cmax ([1]; rat, read-out: Cmax): 5.15 µg/mL

Cc1cc(F)ccc1Oc1ccc(C(F)(F)F)cc1C(=O)Nc1ccc(F)c(C(N)CCO)c1 (centres unmarked) [Example 38]
inhibition at 0.1 µM (human NaV1.8 ion channel; [3]): 50 to 80% | IC50 (hERG ion channels; human, pH 7.4): 3 µM

Cc1cc(F)ccc1Oc1cc(C(F)(F)F)c(Cl)cc1C(=O)Nc1ccnc(OC[C@H](O)CO)c1 [Example 114, (R)-5-chloro-N-(2-(2,3-dihydroxypropoxy)pyridin-4-yl)-2-(4-fluoro-2-methylphenoxy)-4-(trifluoromethyl) benzamide]
inhibition at 0.1 µM (human NaV1.8 ion channel; [2]): > 80% | IC50 (hERG ion channels): 22.3 µM | Inhibition ratio on Nav1.1 (NaV1.1): 4.8% | Inhibition ratio on Nav1.3 (NaV1.3): 4.4% | Inhibition ratio on Nav1.4 (NaV1.4): 2.7% | Inhibition ratio on Nav1.5 (NaV1.5): 5.9% | Inhibition ratio on Nav1.6 (NaV1.6): 8.3% | Inhibition ratio on Nav1.7 (NaV1.7): <1% | half-life ([1]; rat): 11.7 h | AUC ([1]; rat, read-out: AUC): 154 µg·h/mL | Cmax ([1]; rat, read-out: Cmax): 7.63 µg/mL

Cc1cc(F)ccc1Oc1cc(C2CC2)c(C(F)(F)F)cc1C(=O)Nc1cnnc(OC[C@H](O)CO)c1 [Example 112]
inhibition at 0.1 µM (human NaV1.8 ion channel; [2]): 20 to 50% | half-life ([1]; rat): 6.3 h | AUC ([1]; rat, read-out: AUC): 115 µg·h/mL | Cmax ([1]; rat, read-out: Cmax): 8.27 µg/mL

Cc1cc(F)ccc1Oc1ccc(C(F)(F)F)cc1C(=O)Nc1ccc(F)c(C(N)C(N)=O)c1 (centres unmarked) [Example 36]
inhibition at 0.1 µM (human NaV1.8 ion channel; [3]): > 80% | IC50 (hERG ion channels; human, pH 7.4): 10.5 µM

Cc1cc(F)ccc1Oc1cc(C2CC2)c(C(F)(F)F)cc1C(=O)Nc1ccc(F)c(C(N)C(F)CO)c1 (centres unmarked) [Example 22, N-(3-(1-Amino-2-fluoro-3-hydroxypropyl)-4-fluorophenyl)-4-cyclopropyl-2-(4-fluoro-2-methylphenoxy)-5-(trifluoromethyl) benzamide]
inhibition at 0.1 µM (human NaV1.8 ion channel; [3]): > 80%

Cc1cc(F)ccc1Oc1cc(C2CC2)c(C(F)(F)F)cc1C(=O)Nc1ccc(F)c(N)c1 [Example 52, N-(3-Amino-4-fluorophenyl)-4-cyclopropyl-2-(4-fluoro-2-methylphenoxy)-5-(trifluoromethyl) benzamide]
inhibition at 0.1 µM (human NaV1.8 ion channel; [2]): 50 to 80%

Cc1cc(F)ccc1Oc1cc(C2CC2)c(C(F)(F)F)cc1C(=O)Nc1ccc(F)c(OCC(O)CNC2(C(=O)O)CC2)c1 (centres unmarked) [Example 86]
inhibition at 0.1 µM (human NaV1.8 ion channel; [2]): 20 to 50%

Cc1cc(F)ccc1Oc1cc(C2CC2)c(C(F)(F)F)cc1C(=O)Nc1ccc(F)c(OC2CC(N)C2)c1 (centres unmarked) [Example 58, N-(3-(3-aminocyclobutoxy)-4-fluorophenyl)-4-cyclopropyl-2-(4-fluoro-2-methylphenoxy)-5-(trifluoromethyl) benzamide]
inhibition at 0.1 µM (human NaV1.8 ion channel; [2]): 50 to 80%

Cc1cc(F)ccc1Oc1ccc(C(F)(F)F)cc1C(=O)Nc1ccc(F)c(CC(N)C(N)=O)c1 (centres unmarked) [Example 17, N-(3-(2,3-Diamino-3-oxopropyl)-4-fluorophenyl)-2-(4-fluoro-2-methylphenoxy)-5-(trifluoromethyl) benzamide]
Inhibition ratio of Nav1.8 (Activity of inhibition) (human NaV1.8 ion channel): D (D < 20)

Cc1cc(F)ccc1Oc1cc(C2CC2)c(C(F)(F)F)cc1C(=O)Nc1ccc(F)c(OCc2nccs2)c1 [Example 75]
inhibition at 0.1 µM (human NaV1.8 ion channel; [2]): 50 to 80%

Cc1cc(F)ccc1Oc1ccc(C(F)(F)F)cc1C(=O)Nc1ccc(F)c(C(N)CC(N)=O)c1 (centres unmarked) [Example 1, N-(3-(1,3-diamino-3-oxopropyl)-4-fluorophenyl)-2-(4-fluoro-2-methylphenoxy)-5-(trifluoromethyl) benzamide]
IC50 (hERG ion channels; read-out: IC50 for hERG inhibited by compounds, HEK293 cells, hERG tail current): 3.2 µM
